Experimental data from patent publication US20090068146A1, “DIARYL UREAS AND COMBINATIONS” (priority 2005, published 2009).

melting point | Compound
194 to 196 °C | CCNC(=O)c1cc(Oc2ccc(NC(=O)Nc3cc(C(F)(F)F)ccc3OC)cc2)ccn1 [Entry 19, ({4-[2-(N-ethylcarbamoyl)(4-pyridyloxy)]phenyl}amino)-N-[2-methoxy-5-(trifluoromethyl)phenyl]carboxamide]
210 to 213 °C | CNC(=O)c1cc(Oc2ccc(NC(=O)Nc3cc(C(F)(F)F)ccc3OC)c(C)c2)ccn1 [Entry 16, {4-[4-({N-[2-methoxy-5-(trifluoromethyl)phenyl]carbamoyl}amino)-3-methylphenoxy](2-pyridyl)}-N-methylcarboxamide]
183 to 184 °C | CCNC(=O)c1cc(Oc2ccc(NC(=O)Nc3ccc(Br)c(C(F)(F)F)c3)cc2)ccn1 [Entry 88, N-[4-bromo-3-(trifluoromethyl)phenyl]({4-[2-(N-ethylcarbamoyl)(4-pyridyloxy)]phenyl}amino)carboxamide]
187 to 189 °C | CCNC(=O)c1cc(Oc2ccc(NC(=O)Nc3ccc(Cl)c(C(F)(F)F)c3)cc2)ccn1 [Entry 51, N-[4-chloro-3-(trifluoromethyl)phenyl]({4-[2-(N-ethylcarbamoyl)(4-pyridyloxy)]phenyl}amino)carboxamide]
140 to 144 °C | CNC(=O)c1cc(Oc2ccc(NC(=O)Nc3cc(C(F)(F)F)c(Cl)cc3OC)cc2)ccn1 [Entry 95, N-[4-chloro-2-methoxy-5-(trifluoromethyl)phenyl]({4-[2-(N-methylcarbamoyl)(4-pyridyloxy)]phenyl}amino)carboxamide]
114 to 117 °C | COc1ccc(C(F)(F)F)cc1NC(=O)Nc1ccc(Oc2ccnc(C(N)=O)c2)cc1 [Entry 14, 4-[4-({N-[2-methoxy-5-(trifluoromethyl)phenyl]carbamoyl}amino)phenoxy]pyridine-2-carboxamide]
214 to 216 °C | CNC(=O)c1cc(Oc2ccc(NC(=O)Nc3cc(C(F)(F)F)ccc3OC)cc2Cl)ccn1 [Entry 20, ({3-chloro-4-[2-(N-methylcarbamoyl)(4-pyridyloxy)]phenyl}amino)-N-[2-methoxy-5-(trifluoromethyl)phenyl]carboxamide]
147 to 151 °C | CNC(=O)c1cc(Oc2ccc(NC(=O)Nc3ccc(Cl)c(C(F)(F)F)c3)c(Cl)c2)ccn1 [Entry 49, {4-[3-chloro-4-({[4-chloro-3-(trifluoromethyl)phenyl]amino}carbonylamino)phenoxy](2-pyridyl)}-N-methylcarboxamide]
220 to 221 °C | CNC(=O)c1cc(Oc2ccc(NC(=O)Nc3cc(C(F)(F)F)c(Cl)cc3OC)cc2Cl)ccn1 [Entry 97, N-[4-chloro-2-methoxy-5-(trifluoromethyl)phenyl]({3-chloro-4-[2-(N-methylcarbamoyl)(4-pyridyloxy)]phenyl}amino)carboxamide]
244 to 245 °C | CNC(=O)c1cc(Oc2ccc(NC(=O)Nc3cc(C(F)(F)F)c(Cl)cc3OC)c(Cl)c2)ccn1 [Entry 96, N-[4-chloro-2-methoxy-5-(trifluoromethyl)phenyl]({2-chloro-4-[2-(N-methylcarbamoyl)(4-pyridyloxy)]phenyl}amino)carboxamide]
218 to 219 °C | CNC(=O)c1cc(Sc2ccc(NC(=O)Nc3cc(C(F)(F)F)ccc3OC)cc2)ccn1 [Entry 27, N-[2-methoxy-5-(trifluoromethyl)phenyl]({4-[2-(N-methylcarbamoyl)(4-pyridylthio)]phenyl}amino)carboxamide]
217 to 219 °C | CNC(=O)c1cc(Oc2ccc(NC(=O)Nc3ccc(Br)c(C(F)(F)F)c3)cc2Cl)ccn1 [Entry 87, {4-[4-({[4-bromo-3-(trifluoromethyl)phenyl]amino}carbonylamino)-2-chlorophenoxy](2-pyridyl)}-N-methylcarboxamide]
180 to 181 °C | CCNC(=O)c1cc(Oc2ccc(NC(=O)Nc3cc(C(F)(F)F)c(Cl)cc3OC)cc2)ccn1 [Entry 99, N-[4-chloro-2-methoxy-5-(trifluoromethyl)phenyl]({4-[2-(N-ethylcarbamoyl)(4-pyridyloxy)]phenyl}amino)carboxamide]
187 to 188 °C | CNC(=O)c1cc(Oc2ccc(NC(=O)Nc3cc(C(F)(F)F)ccc3OC)c(Cl)c2)ccn1 [Entry 17, ({2-chloro-4-[2-(N-methylcarbamoyl)(4-pyridyloxy)]phenyl}amino)-N-[2-methoxy-5-(trifluoromethyl)phenyl]carboxamide]
